# Data reported in patent US7531575B2, “Method of modulating cellular activity and agents useful for same” (Eberhard-Karls-Universität Tübingin, priority 2002, dated 2009).
# Assays:
# Type in all cases: cell-based, murine
# [1] = tested on: iNOS; experiment: iNOS protein immunoblot, LPS-stimulated N9 microglia; conditions: TNL 300 μM
# Text: (§1) TNL was a generous gift of Kissei Pharmaceuticals, LPC (Escherichia coli, 0127:BS), phorbol 12-myristate 13-acetate (PMA) and dexamethasone (DEX) were obtained from Sigma, BAY 11-7082 (BAY), NF-κB SN50 inhibitory peptide (SN50), GF 109203X (GFX) and rottlerin (ROT) were purchased from Biomol. PD098059 (PD) was obtained from Calbiochem. Purified murine interferon-γ (IFN-γ) was purchased from Roche Diagnostics. N9 murine microglial cells were a kind gift from P. Ricciardi-Castagnoli (Righi, M. et al. 1989 supra). Cells were cultured in Dulbecco's modified Eagle's medium (DMEM) supplemented with 10% fetal calf serum (FCS), 2 mM glutamine, penicillin (100 unit/mL) and streptomycin (100 μg/mL) and maintained at 37° in an atmosphere of 5% CO2. Viability was assessed by crystal violet staining.
# For the preparation of whole cell lysates, the cells were lysed in 0.1 M Tris-HCl (pH 7.2) containing 0.1% NP40, 0.1 mM EDTA and 5 μg/mL phenylmethylsulphonyl fluoride. Twenty micrograms protein was separated by 10-12% SDS-PAGE and electroblotted on nitrocellulose membrane. Equal loading was controlled by Ponceau S staining. Immunodetection was performed using the following antibodies: anti-iNOS rabbit polyclonal antibody (1:1000, Cayman), antiphospho-IκBα mouse monoclonal antibody (1:1000), anti-PKCδ mouse monoclonal antibody (1:2000), antiphospho-MARCKS rabbit polyclonal antibody (1:1000), antiphospho-ERK-1/2, antiphospho-AKT, antiphospho-p38 mouse monoclonal antibodies (1:2000), anti-ERK-1/2, anti-AKT mouse monoclonal antibodies (1:500, all from Signal Transduction Laboratories). Bands were visualized using horseradish peroxidase-conjugated anti-rabbit IgG (1:4000 SantaCruz) or anti-mouse IgG (1:4000, Amersham).
# [2] = tested on: NF-κB; experiment: NF-κB reporter assay, LPS-stimulated N9 microglia; conditions: N9 cells, LPS 10 μg/mL 4 hr, TNL pre-incubation 1 hr
# Procedure: NF-κB reporter gene activity was assayed as previously described (Platten, M. et al. 2001 supra). Briefly, 8×10^3 cells/well were seeded in a 96-well plate and transfected with an NF-κB cis reporter gene plasmid (PathDetect No. 219077, Stratagene) encoding firefly luciferase using FuGene™ transfection reagent (Roche). pFC-MEKK (Stratagene) and pcDNA3 plasmids cotransfected with the reporter plasmid served as positive and negative controls. After freezing and thawing, the cells were lysed in 40 mM Tricine (pH 7.8) containing 50 mM NaCl, 2 mM EDTA, 1 mM MgSO4, 5 mM DTT and 1% Triton X-100. Lysates were assayed using Luciferase assay reagent (40 mM Tricine, pH 7.8, containing 10 mM MgSO4, 0.5 mM EDTA, 10 mM DTT, 0.5 mM coenzyme A, […] and 0.5 mM beetle luciferine). Luminescence was measured in LumiNunc™ plates (Nunc) in a LumimatPlus™ (EG&G Berthold). Values are expressed as relative light units (RLU).
# [3] = tested on: inhibitory-κB (I-κB); experiment: phospho-IκBα immunoblot, LPS-stimulated N9 microglia; conditions: N9 cells, 1 hr, TNL pre-incubation 1 hr
# Text: as §1
# For the preparation of whole cell lysates, the cells were lysed in 0.1 M Tris-HCl (pH 7.2) containing 0.1% NP40, 0.1 mM EDTA and 5 μg/mL phenylmethylsulphonyl fluoride. Twenty micrograms protein was separated by 10-12% SDS-PAGE and electroblotted on nitrocellulose membrane. Equal loading was controlled by Ponceau S staining. […]
# [4] = tested on: iNOS; experiment: iNOS protein immunoblot, IFN-γ-stimulated N9 microglia; conditions: N9 cells, IFN-γ 200 u ml, 24 h, tranilast 300 μM
# Procedure: Tranilast was a generous gift of Kissei Pharmaceuticals (Nagano, Japan). Murine recombinant IFN-γ was purchased from Boehringer (Mannheim, Germany). Dexamethasone (DEX) was obtained from Sigma (Deisenhofen, Germany). N9 murine microglial cells were a kind gift from P. Ricciardi-Castagnoli (Milano, Italy) (Righi, M., Mori, L., De Libero, G., Sironi, M., Biondi, A., Mantovani, A., Donini, S. D. and Ricciardi-Castagnoli, P. Eur J Immunol 19(8):1443-1448, 1989). The cells were cultured in Dulbecco's modified Eagle's medium (DMEM) supplemented with 10% foetal calf serum (FCS), 2 mM glutamine and penicillin ([…])/streptomycin (100 μg ml), and maintained at 37° C. in an atmosphere of 5% CO2. Viability was assessed by crystal violet staining.
# For the preparation of whole cell lysates, the cells were rinsed in phosphate-buffered saline (PBS), harvested, centrifuged at 1200×g, lysed in 0.1 M TRIS-HCl (pH 7.2) containing 0.1% NP40, 0.1 mM EDTA and 5 μg ml PMSF for 40 min on ice, and centrifuged at 10,000×g for 10 min. Protein concentration was determined using Biorad reagents with photometric analysis. Proteins (20 μg lane) were separated by 10-12% SDS-PAGE and electroblotted on nitrocellulose. qual protein loading was controlled by Ponceau S staining. […]
structure (smiles),measurement,setting,value
"COc1ccc(/C=C/C(=O)Nc2ccccc2C(=O)O)cc1OC [tranilast, 2-[[3-(3,4-dimethoxyphenyl)-1-oxo-2-propenyl]amino]benzoic acid]",accumulation of iNOS protein after LPS,"[1]; N9 cells, LPS 10 μg/mL",suppressed
same,PMA superinduction of iNOS protein in LPS-stimulated cells,"[1]; PMA 100 nM 15 min, LPS 10 μg/mL 24 hr",abolished
same,LPS-mediated NF-κB reporter gene activity,[2],did not suppress
same,LPS-mediated phosphorylation of I-κB,[3],did not suppress
same,IFN-γ-induced iNOS protein expression,[4],greatly suppressed
